Where two headings read alike, the source gives them in different places.
Legend:
BMDM [1] = assay: Q-PCR quantitation of cytokine mRNAs in LPS-stimulated BMDM; assay type: cell-based, mouse
Experimental: RNA was extracted using AllPrep DNA/RNA Mini kit, and cDNA was synthesized using SuperScript™ VILO™ cDNA Synthesis Kit. mRNA expression was determined by QPCR in a CFX96 thermal cycler (Biorad) as described (Zhong et al., 2016). Data are presented in arbitrary units and calculated by the 2^(−ΔΔCT) method. Primer sequences were obtained from the NIH qPrimerDepot (http://mouseprimerdepot.nci.nih.gov) and provided by Integrated DNA technologies.

BMDM [2] = assay: Cytokine secretion by LPS-stimulated BMDM (ELISA); assay type: cell-based, mouse; conditions: LPS-stimulated BMDM, metformin 0.5 mM 16 hrs
Text: (§1) Paired antibodies (capture and detection) and standard recombinant mouse IL-1β (R&D Systems), and TNF and IL-6 (eBioscience) were used to determine mouse cytokine concentrations according to manufacturer's instructions.

Il6 and Il1b promoters = assay: ChIP-qPCR of transcription factor recruitment to Il6 and Il1b promoters in BMDM; assay type: cell-based, mouse; conditions: LPS
Experimental: Cells were fixed using 0.75% formaldehyde for 10 min followed by 0.125 M glycine to stop the crosslinking reaction. […] Nuclei were pelleted at 1,000 g in a cold microfuge and resuspended in B buffer (50 mM Tris, pH 8.0, 5 mM EDTA and 1% SDS plus inhibitors). […] Nuclear extracts were immunoprecipitated with respective antibodies. The co-immunoprecipitated material was then subjected to qPCR analysis using specific primers.

NLRP3 inflammasome = NLRP3 inflammasome activation in LPS-primed BMDM; assay type: cell-based, mouse
[3] = test system: alum induced peritonitis model; assay: Alum-induced peritonitis; assay type: in vivo, mouse
mtDNA = mtDNA synthesis and cytosolic Ox-mtDNA in BMDM; assay type: cell-based, mouse
Experimental: To image mtDNA synthesis, BMDM were stimulated with LPS ([…]) for 4 hrs in the presence of 10 μM EdU. Cells were then washed twice with sterile PBS and fixed in 4% PFA for 15 min followed by permeabilization with 0.02% Triton X-100 for 10 min. EdU staining was performed using a Click-iT EdU Microplate Assay Kit (Thermo Fisher Scientific). In brief, BMDMs were postfixed in EdU fixative for 5 min, and equal volumes of the EdU reaction cocktail, which was prepared immediately before use, were added to each chamber and left overnight. Primary antibody against the mitochondrial marker Atp5b was included in the EdU reaction cocktail. The next day, the BMDM were washed three times with PBS followed by incubation with secondary Alexa antibodies from Life Technologies or Jackson Immuno Research Laboratories. DAPI was used for nuclear counterstaining.
Total DNA was isolated using Allprep DNA/RNA Mini Kit (catalogue 80204, Qiagen) according to manufacturer's instructions. mtDNA was quantified by qPCR using primers specific for the mitochondrial D-loop region, cytochrome c oxidase (COX) or a specific region of mtDNA that is not inserted into nuclear DNA (non-NUMT) (Zhong et al., 2018). Nuclear DNA encoding Teri, 18S ribosomal RNA and B2m was used for normalization.
Cellular fractionation was performed using Mitochondrial Isolation kit (89874, ThermoScientific) according to manufacturer's instructions. Cytosolic mtDNA was analyzed as described (Nakahira et al., 2011). For the measurement of Ox-mtDNA, mtDNA was first purified using Allprep DNA/RNA mini kit (Qiagen) from the cytosolic fraction of BMDM as described above. The 8-OH-dG content of the mtDNA was then quantified using an 8-OHdG quantification kit (ab201734), per manufacturer's instructions.

LPS-induced ARDS = conditions: for protection from LPS-induced ARDS: last dose 30 min prior to 5 mg/kg LPS
Experimental: Briefly, 5 mg/kg LPS or vehicle was i.p. injected and the mice were euthanized 8, 24 or 48 hrs later. […] In all cases, at the experimental endpoint the lungs were inflated with cold PBS, excised and fixed in 10% formalin for histological evaluation.
as §1
Lungs were fixed in 10% formalin for 24 hrs and embedded in paraffin, sectioned and stained with hematoxylin and eosin (H&E) to evaluate gross morphology and lung damage and inflammation; and with Sirius red to determine collagen buildup. Ten to twelve H&E stained sections from each animal were scored for the degree of lung inflammation and damage by two blinded mouse lung pathology experts as described (Jupelli et al., 2013), and the scores were averaged. Briefly, the degree of lung inflammation was assigned an arbitrary score of 0 (normal=no inflammation, no airway thickening, no edema), 1 (minimal cellular infiltration, and minimal edema), 2 (mild-moderate cellular infiltration, plus mild airway thickening and mild edema), 3 (severe cellular infiltration, plus diffuse airway thickening and severe edema) in 10-12 fields per mouse.
Lung sections were subjected to incubation with antibodies specific for F4/80 (macrophage marker), myeloperoxidase (MPO, neutrophil marker), c/EBPb, NFATc2 and NFATc3. Stained areas were quantified using ImageJ software.
NLRP3 inflammasome activation in the lung was detected by immunofluorescence co-staining with F4/80 and ASC antibodies. Briefly, lung sections were hydrated and boiled at 96° C. in citrate buffer 1× for 20 min. Sections were blocked with 2% BSA/PBS1X containing 1% normal horse serum for 1 hr at room temperature. F4/80 and ASC antibodies were incubated in blocking solution overnight at 4° C. After washing, Alexa secondary antibodies were added and the sections were incubated in 2% BSA/PBS1X for 1 hr at room temperature. Sections were washed, incubated with DAPI, and mounted using FluoSave. Sections were imaged through a Leica SP5 confocal microscope. The percentage of F4/80^+ cells with ASC specks were quantified in 18-26 high magnification fields from 4-5 mice per group.

[4] = test system: SARS-CoV-2 USA-WA1/2020 strain; assay: SARS-CoV-2 infection in hACE2 mice; assay type: in vivo, mouse
[5] = BMDM, metformin 0.5 mM 16 h, LPS
[6] = BMDM, metformin 0.5 mM 16 h, LPS 4 h
[7] = LPS-primed BMDM, metformin 0.5 mM 16 h
[8] = Cmpk2ΔMye mice, 50 mg/kg metformin
[9] = therapeutic, 50 mg/kg i.p. after LPS

CN(C)C(=N)NC(=N)N [metformin, N,N-dimethylbiguanide]
Il1b and Il6 mRNA after metformin treatment (BMDM [1]; AMPKα1 silenced (shPrkaa1) LPS-treated macrophages): still declined
decline in Il1b and Il6 mRNA induction by LPS (BMDM [1]; BMDM, metformin 0.5 mM 16 h): 30-50%
induction of Ifnb and Ifng mRNAs (BMDM [1]; [5]): did not inhibit induction
induction of Il10 mRNA (BMDM [1]; [5]): potentiated induction
other cytokine and chemokine mRNAs (Tnf, Il12, Il23, Ccl2, Ccl3, Ccl4, Ccl5) (BMDM [1]; BMDM, metformin 0.5 mM 16 h, LPS 100 ng/ml 4 hrs): little effect
Il1b and Il6 mRNA expression (BMDM [1]; LPS-stimulated Il10−/− BMDM): still inhibited
IL-6 secretion (BMDM [2]): inhibited
TNF release (BMDM [2]): unaffected
c/EBPβ and NFATc1-4 recruitment to the Il6 promoter (Il6 and Il1b promoters): inhibited
nigericin- and ATP-induced ASC speck formation (NLRP3 inflammasome; BMDM, metformin 0.5 mM 16 h): inhibited
expression of inflammasome components NLRP3, ASC, pro-Casp1 and NEK7 (NLRP3 inflammasome; [6]): no effect
pro-IL 1β protein (NLRP3 inflammasome; [6]): modestly decreased
inhibition of nigericin-induced ASC specks (NLRP3 inflammasome; BMDM, nigericin): incomplete
effect of AMPKα1 ablation on inhibition of Casp1 activation or IL-1β processing and secretion by metformin (NLRP3 inflammasome; LPS-primed Ampkα1−/− BMDM stimulated with ATP): no effect
LDH release (NLRP3 inflammasome; LPS-primed BMDM with NLRP3 agonists, metformin 0.5 mM 16 hrs): reduced
gasdermin D (GSDMD) cleavage (NLRP3 inflammasome; [7]): inhibited
Casp1 activation and pro-IL-1β processing to mature IL-1β (NLRP3 inflammasome; LPS-primed macrophages with ATP, nigericin, alum or MSU, metformin 0.5 mM 16 h): inhibited
IL-1β and Casp1 p20 release (NLRP3 inflammasome; Ndufs4-deficient BMDM, LPS + ATP, metformin 0.5 mM 16 hrs): did not further reduce
effect on Casp1 activation and pro-IL-1β processing (NLRP3 inflammasome; nigericin-challenged macrophages): relatively modest
Casp1 activation and IL-1β secretion (NLRP3 inflammasome; p62- and ATG7-deficient macrophages, LPS + ATP): still inhibited
peritoneal IL-1β and IL-6 production ([3]; metformin 0, 10, 50 mg/kg 30 min prior to i.p. alum): dose-dependent decline
peritoneal TNF production ([3]; metformin 10 or 50 mg/kg 30 min prior to i.p. alum): no effect
inhibition of LPS-induced mtDNA synthesis by EdU-labelling (mtDNA; BMDM, LPS 4 hrs, metformin 0.5 mM 16 hrs): confirmed
LPS-stimulated mtDNA synthesis (mtDNA; [7]): strongly inhibited
generation of cytoplasmic Ox-mtDNA (mtDNA; LPS-primed macrophages challenged with ATP or nigericin, metformin): blocked generation
effect of AMPKα1 silencing on LPS-stimulated mtDNA synthesis and its inhibition by metformin (mtDNA; shPrkaa1 BMDM): no effect
protection from LPS-induced ARDS (LPS-induced ARDS; 10 mg/kg i.p. three consecutive days): modest protective effect
protection from LPS-induced ARDS (LPS-induced ARDS; 50 mg/kg i.p. three consecutive days): strong protection
IL-1β and IL-6 in BALF (LPS-induced ARDS; 50 mg/kg prophylactic): decreased
TNF in BALF (LPS-induced ARDS; 50 mg/kg prophylactic): no effect
collagen buildup (LPS-induced ARDS; 50 mg/kg prophylactic): abrogated
infiltration of inflammatory cells into bronchioles, vascular bed and lung parenchyma (LPS-induced ARDS; 50 mg/kg prophylactic): inhibited
macrophage and neutrophil infiltration (LPS-induced ARDS; 50 mg/kg prophylactic, F4/80 and MPO staining): strongly inhibited
septa thickening (LPS-induced ARDS; 50 mg/kg prophylactic, lung histology): prevented
c/EBPβ activation and IL-6 secretion to BALF (LPS-induced ARDS; [8]): did inhibit
lung pathology or IL-1β secretion (LPS-induced ARDS; [8]): did not result in noticeable improvement
preventive efficacy of oral metformin (LPS-induced ARDS; drinking water 400 mg/kg starting 48 hrs prior to LPS): as protective as injected metformin
ASC speck formation in lung (LPS-induced ARDS; prophylactic metformin): limited
c/EBPβ and NFAT activation in lung (LPS-induced ARDS; prophylactic metformin): limited
IL-1β in BALF (LPS-induced ARDS; [9]): decreased
macrophage and neutrophil infiltration (LPS-induced ARDS; [9]): inhibited
infection-associated loss of body weight ([4]; day 2 post-inoculation): slowed down
immune cell infiltration, alveolar wall thickening and c/EBPβ activation ([4]; hACE2 Tg mice, 50 mg/kg i.p. from 2 days before infection, 6 days post-infection): reduced
macrophages with ASC specks in lungs ([4]; hACE2 Tg mice, 50 mg/kg, day 6 post-infection): almost none

— patent US12642780B2, “Methods and compositions to treat and prevent viral infections and acute respiratory distress syndrome” (priority 2020, dated 2026)
